Measurements from US5861395A, “Compounds useful for inhibition of farnesyl proteins transferase” (Schering Corporation, priority 1997, dated 1999).
Like-named read-outs stand apart in the source and are kept apart here.

What was measured:
[1] = target: farnesyl protein transferase; assay: FPT IC50 (inhibition of farnesyl protein transferase, in vitro enzyme assay); type: biochemical
From the text: In Table 2 "Ex. No." stands for "Example Number". In Table 2, FPT IC50 results are less indicated otherwise.

COS Cell = COS Cell IC50 (Cell-Based Assay)
Method: (§1) FPT IC50 (inhibition of farnesyl protein transferase, in vitro enzyme assay), GGPT IC50 (inhibition of geranylgeranyl protein transferase, in vitro enzyme assay) and COS Cell IC50 (Cell-Based Assay) were determined following the assay procedures described in WO 95/10516, published Apr. 20, 1995. Cell Mat Assay, and anti-tumor activity (in vivo anti-tumor studies) could be determined by the assay procedures described in WO 95/10516. The disclosure of WO 95/10516 is incorporated herein by reference thereto.

Human tumor cells = assay: Soft Agar Assay (anchorage-independent growth); type: cell-based; conditions: Table 4, colonies after 10-16 days at 37° C.
Method: Soft Agar Assay: Anchorage-independent growth is a characteristic of tumorigenic cell lines. Human tumor cells are suspended in growth medium containing 0.3% agarose and an indicated concentration of a farnesyl transferase inhibitor. The solution is overlayed onto growth medium solidified with 0.6% agarose containing the same concentration of farnesyl transferase inhibitor as the top layer. After the top layer is solidified, plates are incubated for 10-16 days at 37° C. under 5% CO2 to allow colony outgrowth. […] Colonies can be counted and the IC50 's can be determined.

[2] = target: farnesyl protein transferase (K-ras) (Homo sapiens, UniProt P49354+P49356); assay: FPT IC50 (K-ras), in vitro enzyme assay; type: biochemical
Method: as §1

Row | Structure (SMILES) | IC50 ([1]; Table 3) [nM] | IC50 (COS Cell; Table 4) [nM] | IC50 (Human tumor cells; Homo sapiens) [nM] | further results
1 | NC(=NO)N1CCC(CC(=O)N2CCN(C3c4ccc(Cl)cc4CCc4cc(Br)cnc43)CC2)CC1 (centres unmarked) [Example 11, 4-[2-[4-(3-BROMO-8-CHLORO-6,11-DIHYDRO-5 H-BENZO[5,6CYCLOHEPTA[1,2-b]PYRIDIN-11-YL-1-PIPERAZINYL]-2-OXOETHYL]-N-HYDROXY-1-PIPERIDINE-CARBOXIMIDATE] | – | – | – | IC50 ([1]; Table 2): 58 nM
2 | O=C(CC1CCN(C(=O)c2cccn2Cc2ccccc2)CC1)N1CCC([C@H]2c3ncc(Br)cc3CCc3cc(Cl)cc(Br)c32)CC1 [Compound 41.0-B] | 1.7 | 30 | > 500 | –
3 | NC(=O)O[C@H]1CC[C@@H](C(=O)N2CCC(CC(=O)N3CCC([C@H]4c5ncc(Br)cc5CCc5cc(Cl)cc(Br)c54)CC3)CC2)CC1 [Compound 94.0-B] | 4 | 25 | 210 | –
4 | O=C1C[C@@H](C(=O)N2CCC(CC(=O)N3CCC([C@H]4c5ncc(Br)cc5CCc5cc(Cl)cc(Br)c54)CC3)CC2)NC(=O)N1 [Compound 78.0-B] | 2.6 | 30 | 170 | –
5 | N=C(NC(=O)NC(N)=O)N1CCC(CC(=O)N2CCN(C3c4ccc(Cl)cc4CCc4cc(Br)cnc43)CC2)CC1 (centres unmarked) [Example 14, N-[[(AMINOCARBONYL)AMINO]CARBONYL]-4-[2-[4-(3-BROMO-8-CHLORO-6,11-DIHYDRO-5H-BENZO[5,6]CYCLOHEPTA[1,2-b]-PYRIDIN-11-YL)-1-PIPERAZINYL]2-OXOETHYL]-1-PIPERIDINECARBOXIMIDAMIDE] | – | – | – | IC50 ([1]; Table 2): 78 nM
6 | NC(=O)NC(=O)N=C(Oc1ccccc1)N1CCC(CC(=O)N2CCN(C3c4ccc(Cl)cc4CCc4cc(Br)cnc43)CC2)CC1 (centres unmarked) [Example 13, PHENYL N- [[(AMINOCARBONYL)AMINO]CARBONYL]4-[2-[4-(3-BROMO-8-CHLORO-6,11-DIHYDRO-5 H-BENZO[5,6CYCLOHEPTA-[1,2-b]PYRIDIN-11-YL)-1-PIPERAZINYL]-2-OXOETHYL]-1-PIPERIDINECARBOXIMIDATE] | – | – | – | IC50 ([1]; Table 2): 140 nM
7 | NC(=O)c1cncc(C(=O)N2CCC(CC(=O)N3CCC([C@H]4c5ncc(Br)cc5CCc5cc(Cl)cc(Br)c54)CC3)CC2)c1 [Compound 29.0-B] | 2.2 | 21 | 500 | –
8 | O=C(NC(=O)C(Cl)(Cl)Cl)O[C@H]1CC[C@@H](C(=O)N2CCC(CC(=O)N3CCC([C@H]4c5ncc(Br)cc5CCc5cc(Cl)cc(Br)c54)CC3)CC2)CC1 [Compound 93.0-B] | 5.7 | 30 | 410 | –
9 | O=C1N[C@H](C(=O)N2CCC(CC(=O)N3CCC([C@H]4c5ncc(Br)cc5CCc5cc(Cl)cc(Br)c54)CC3)CC2)CO1 [Compound 28.0-B] | 2.3 | 7 | 120 | –
10 | O=C1NC[C@@H](C(=O)N2CCC(CC(=O)N3CCC([C@H]4c5ncc(Br)cc5CCc5cc(Cl)cc(Br)c54)CC3)CC2)N1 [Compound 15.0-B] | 2 | 33 | 280 | IC50 (Human tumor cells): 370 nM
11 | O=C(CC1CCN(C(=O)c2cccnc2O)CC1)N1CCC([C@H]2c3ncc(Br)cc3CCc3cc(Cl)cc(Br)c32)CC1 [Compound 48.0-B] | 2.1 | 47 | > 500 | –
12 | N#CN1CCC(CC(=O)N2CCN(C3c4ccc(Cl)cc4CCc4cc(Br)cnc43)CC2)CC1 (centres unmarked) [Example 4] | – | – | – | IC50 ([1]; Table 2): 54.3 nM
13 | N#CN1CCC(CC(=O)N2CCC([C@H]3c4ncc(Br)cc4CCc4cc(Cl)cc(Br)c43)CC2)CC1 [Example 26] | – | – | – | IC50 ([1]; Table 2): 2.3 nM; IC50 (COS Cell; Table 2): 12 nM
14 | N=C(Oc1ccccc1)N1CCC(CC(=O)N2CCC(C3c4ccc(Cl)c(Br)c4CCc4cc(Br)cnc43)CC2)CC1 (centres unmarked) [Example 27] | – | – | – | IC50 ([1]; Table 2): 39 nM
15 | O=C(CC1CCN(C(=O)c2ccc(O)nc2)CC1)N1CCC([C@@H]2c3c(Br)cc(Cl)cc3CCc3cc(Br)c[n+]([O-])c32)CC1 [Compound 91.0-B] | 2.5 | 500 | > 500 | –
16 | CC(=O)N1CCC(CC(=O)N2CCC([C@H]3c4ncc(Br)cc4CCc4cc(Cl)cc(Br)c43)CC2)CC1 [Compound 36.0-B] | 2.6 | 50 | 180 | IC50 (Human tumor cells): 170 nM
17 | O=C(CC1CCN(C(=O)c2ccoc2)CC1)N1CCC([C@H]2c3ncc(Br)cc3CCc3cc(Cl)cc(Br)c32)CC1 [Compound 84.0-B] | 8.5 | 11 | 100 | –
18 | O=C(CC1CCN(C(=O)c2ncccc2O)CC1)N1CCC([C@H]2c3ncc(Br)cc3CCc3cc(Cl)cc(Br)c32)CC1 [Compound 83.0-B] | 3.2 | 12 | 500 | –
19 | N#CNC(=N)N1CCC(CC(=O)N2CCN(C3c4ccc(Cl)cc4CCc4cc(Br)cnc43)CC2)CC1 (centres unmarked) [Example 2, 4-[2-[4-(3-BROMO-8-CHLORO-6,11-DIHYDRO-5 H-BENZO[5,6]CYCLOHEPTA[1,2-b]PYRIDIN-11-YL)-1-PIPERAZINYL]-2-OXOETHYL]-N-CYANO-1-PIPERIDINE-CARBOXIMIDAMIDE] | – | – | – | IC50 ([1]; Table 2): 100 nM

Row | Structure (SMILES) | IC50 ([1]; Table 3) [nM] | IC50 (COS Cell; Table 4) [nM] | IC50 (Human tumor cells; Homo sapiens) [nM] | further results
20 | O=C(CC1CCN(C(=O)c2cn[nH]c2)CC1)N1CCC([C@H]2c3ncc(Br)cc3CCc3cc(Cl)cc(Br)c32)CC1 [Compound 31.0-B] | 3 | 7 | 150 | –
21 | O=C(CC1CCN(C(=O)[C@H]2CC[C@@H](O)CC2)CC1)N1CCC([C@H]2c3ncc(Br)cc3CCc3cc(Cl)cc(Br)c32)CC1 [Compound 73.0-B] | 4.5 | 24 | 360 | –
22 | CCn1cccc1C(=O)N1CCC(CC(=O)N2CCC([C@H]3c4ncc(Br)cc4CCc4cc(Cl)cc(Br)c43)CC2)CC1 [Example 54] | 7.8 | 40 | > 500 | –
23 | Cc1noc(C)c1C(=O)N1CCC(CC(=O)N2CCC([C@H]3c4ncc(Br)cc4CCc4cc(Cl)cc(Br)c43)CC2)CC1 [Compound 27.0-B] | 4 | 10 | 370 | –
24 | O=C(O)c1cncc(C(=O)N2CCC(CC(=O)N3CCC([C@H]4c5ncc(Br)cc5CCc5cc(Cl)cc(Br)c54)CC3)CC2)c1 [Compound 25.0-B] | 0.8 | > 1000 | > 500 | –
25 | O=C(CC1CCN(C(=O)c2ccc[n+]([O-])c2)CC1)N1CCC([C@H]2c3ncc(Br)cc3CCc3cc(Cl)cc(Br)c32)CC1 [Compound 46.0-B] | 1.9 | 7 | 165 | –
26 | CS(=O)(=O)n1cccc1C(=O)N1CCC(CC(=O)N2CCC([C@H]3c4ncc(Br)cc4CCc4cc(Cl)cc(Br)c43)CC2)CC1 [Compound 43.0-B] | 3.8 | < 10 | 200 | –
27 | O=C(O)Cn1cccc1C(=O)N1CCC(CC(=O)N2CCC([C@H]3c4ncc(Br)cc4CCc4cc(Cl)cc(Br)c43)CC2)CC1 [Compound 62.0-B] | 2.8 | 700 | > 500 | –
28 | N=C(N)N1CCC(CC(=O)N2CCC(C3c4ccc(Cl)c(Br)c4CCc4cc(Br)cnc43)CC2)CC1 (centres unmarked) [Example 28] | – | – | – | IC50 ([1]; Table 2): 23 nM; inhibition at 1 µM (COS Cell; @ 1 μM, Table 2): 0%
29 | N#CN1CCC(CC(=O)N2CCC(C3c4ccc(Cl)c(Br)c4CCc4cc(Br)cnc43)CC2)CC1 (centres unmarked) [Example 30] | – | – | – | IC50 ([1]; Table 2): 7 nM; IC50 ([2]; Table 2): 38.7 nM; IC50 (COS Cell; Table 2): 460 nM
30 | N=C(NS(N)(=O)=O)N1CCC(CC(=O)N2CCN(C3c4ccc(Cl)cc4CCc4cc(Br)cnc43)CC2)CC1 (centres unmarked) [Example 6, 4-[2-[4-(3-BROMO-8-CHLORO-6,11-DIHYDRO-5H-BENZO[5,6]CYCLOHEPTA[1,2-b]PYRIDIN-11-YL)-1-PIPERAZINYL]2-OXOETHYL]-N-SULFAMOYL-1-PIPERIDINE-CARBOXIMIDAMIDE] | – | – | – | IC50 ([1]; Table 2): 120 nM
31 | O=CN1CCC(CC(=O)N2CCC([C@H]3c4ncc(Br)cc4CCc4cc(Cl)cc(Br)c43)CC2)CC1 [Compound 5.0-B] | 3.7 | 8 | – | IC50 [2]: 16 nM
32 | CC(=O)O[C@H]1CC[C@@H](C(=O)N2CCC(CC(=O)N3CCC([C@H]4c5ncc(Br)cc5CCc5cc(Cl)cc(Br)c54)CC3)CC2)CC1 [Compound 66.0-B] | 7.3 | 10 | 440 | –
33 | NC(=O)Cn1cccc1C(=O)N1CCC(CC(=O)N2CCC([C@H]3c4ncc(Br)cc4CCc4cc(Cl)cc(Br)c43)CC2)CC1 [Compound 42.0-B] | 3.2 | 27 | 310 | –
34 | N#CN=C(Oc1ccccc1)N1CCC(CC(=O)N2CCN(C3c4ccc(Cl)cc4CCc4cc(Br)cnc43)CC2)CC1 (centres unmarked) [Example 1, PHENYL 4-[2-[4-(3-BROMO-8-CHLORO-6,11-DIHYDRO-5H-BENZO[5,6]CYCLOHEPTA[1,2-b]PYRIDIN-11-YL]-1-PIPERAZINYL]-2-OXOETHYL]-N-CYANO-1-PIPERIDINE-CARBOXIMIDATE] | – | – | – | FPT inhibition (column FPT IC50) ([1]; @ 0.3 μM, Table 2): 44%
35 | O=C(CC1CCN(C(=O)c2ccc(O)nc2)CC1)N1CCC([C@H]2c3ncc(Br)cc3CCc3cc(Cl)cc(Br)c32)CC1 [Compound 47.0-B] | 2.9 | 35 | 450 | –
36 | O=C(CC1CCN(C(=O)[C@@H]2CSCN2)CC1)N1CCC([C@H]2c3ncc(Br)cc3CCc3cc(Cl)cc(Br)c32)CC1 [Compound 80.0-B] | 2.6 | – | > 500 | –
37 | CC(C)(C)OC(=O)Cn1cccc1C(=O)N1CCC(CC(=O)N2CCC([C@H]3c4ncc(Br)cc4CCc4cc(Cl)cc(Br)c43)CC2)CC1 [Compound 61.0-B] | 11 | – | – | –
